Laboratory results reported in patent publication US20090253669A1, “Substituted Sulfonamide Compounds” (GRUENENTHAL GmbH, priority 2008, published 2009).

Legend:
[1] = target: T1, human B1R receptor (hB1R) (Homo sapiens, UniProt P46663); assay: FLIPR Ca2+ assay on hB1R-transfected CHO K1 cells, antagonistic action; type: cell-based; details: CHO-K1, 10 μM test substance; agonist Lys-Des-Arg9-bradykinin 0.5 nM; % of maximum achievable inhibition; read-out: hB1R [10 μM] % inhibition
T1 construct: host or cells: CHO K1 cells
T1 sequence (P46663 1-353): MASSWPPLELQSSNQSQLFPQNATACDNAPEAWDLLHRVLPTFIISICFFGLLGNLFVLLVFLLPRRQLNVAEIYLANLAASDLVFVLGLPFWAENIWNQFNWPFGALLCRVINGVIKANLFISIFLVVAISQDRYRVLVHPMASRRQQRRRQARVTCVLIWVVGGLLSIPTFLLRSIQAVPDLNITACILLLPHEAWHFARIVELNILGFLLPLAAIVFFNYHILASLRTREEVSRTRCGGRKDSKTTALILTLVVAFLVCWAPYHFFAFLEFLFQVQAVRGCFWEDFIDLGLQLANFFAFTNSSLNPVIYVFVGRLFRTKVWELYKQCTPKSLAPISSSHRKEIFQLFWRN

[2] = target: T2, B1R receptor of the rat (rB1R) (Rattus norvegicus, UniProt P97583); assay: FLIPR Ca2+ assay on rB1R-transfected CHO K1 cells, antagonistic action; type: cell-based; details: CHO-K1, 10 μM test substance; agonist Des-Arg9-bradykinin 100 nM; % of maximum achievable inhibition; read-out: rB1R [10 μM] % inhibition
T2 construct: host or cells: CHO K1 cells
T2 sequence (P97583 1-337): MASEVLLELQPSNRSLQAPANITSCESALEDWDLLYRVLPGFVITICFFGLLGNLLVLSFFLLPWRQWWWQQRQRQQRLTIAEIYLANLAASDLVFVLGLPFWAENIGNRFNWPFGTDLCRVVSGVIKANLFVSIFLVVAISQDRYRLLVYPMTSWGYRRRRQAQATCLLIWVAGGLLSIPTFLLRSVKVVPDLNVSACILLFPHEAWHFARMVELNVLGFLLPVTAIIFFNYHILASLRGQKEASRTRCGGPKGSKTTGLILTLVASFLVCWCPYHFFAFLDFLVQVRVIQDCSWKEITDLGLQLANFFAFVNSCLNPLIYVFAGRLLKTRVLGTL

Row | SMILES | inhibition at 10 µM [1] [%] | inhibition at 10 µM [2] [%]
1 | COc1cc(C)c(S(=O)(=O)N2CCCC(OCC(=O)N(C)CC3CCC(Cc4ccccc4)(N4CCN(C)CC4)CC3)C2)c(C)c1 (stereo not shown) [Compound 184, N-((4-benzyl-4-(4-methylpiperazin-1-yl)cyclohexyl)methyl)-2-(1-(4-methoxy-2,6-dimethylphenylsulfonyl)piperidin-3-yloxy)-N-methylacetamide] | 93 | 65
2 | COc1cc(C)c(S(=O)(=O)N(C)CCOCC(=O)NCC2CCC(c3ccccc3)(N3CCOCC3)CC2)c(C)c1 (stereo not shown) [Compound 185, 2-(2-(4-methoxy-N,2,6-trimethylphenylsulfonamido)ethoxy)-N-((4-morpholino-4-phenylcyclohexyl)methyl)acetamide] | 93 | 65
3 | CN1CCN(C2(Cc3ccccc3)CCC(CN(C)C(=O)COCCN(C)S(=O)(=O)c3c(Cl)cc(Cl)cc3Cl)CC2)CC1 (stereo not shown) [Compound 186, N-((4-benzyl-4-(4-methylpiperazin-1-yl)cyclohexyl)methyl)-N-methyl-2-(2-(2,4,6-trichloro-N-methylphenylsulfonamido)ethoxy)acetamide] | 97 | 64
4 | COc1cc(C)c(S(=O)(=O)N2CCCC(COCC(=O)NC3CCC(c4ccccc4)(N4CCCC4)CC3)C2)c(C)c1 (stereo not shown) [Compound 187, 2-((1-(4-methoxy-2,6-dimethylphenylsulfonyl)piperidin-3-yl)methoxy)-N-(4-phenyl-4-(pyrrolidin-1-yl)cyclohexyl)acetamide] | 95 | 63
5 | COc1cc(C)c(S(=O)(=O)N(C)CCOCC(=O)NCC2CCC(Cc3ccccc3)(N3CCOCC3)CC2)c(C)c1 (stereo not shown) [Compound 188, N-((4-benzyl-4-morpholinocyclohexyl)methyl)-2-(2-(4-methoxy-N,2,6-trimethylphenylsulfonamido)ethoxy)acetamide] | 95 | 63
6 | CN(CCOCC(=O)NC1CCC(Cc2ccccc2)(N2CCCC2)CC1)S(=O)(=O)c1c(Cl)cc(Cl)cc1Cl (stereo not shown) [Compound 189, N-(4-benzyl-4-(pyrrolidin-1-yl)cyclohexyl)-2-(2-(2,4,6-trichloro-N-methylphenylsulfonamido)ethoxy)acetamide] | 65 | 60
7 | COc1cc(C)c(S(=O)(=O)N2CCCC(OCC(=O)NC3CCC(Cc4ccccc4)(N4CCOCC4)CC3)C2)c(C)c1 (stereo not shown) [Compound 190, N-(4-benzyl-4-morpholinocyclohexyl)-2-(1-(4-methoxy-2,6-dimethylphenylsulfonyl)piperidin-3-yloxy)acetamide] | 90 | 57
8 | CN(CCOCC(=O)NC1CCC(c2ccccc2)(N2CCCC2)CC1)S(=O)(=O)c1c(Cl)cc(Cl)cc1Cl (stereo not shown) [Compound 191, N-(4-phenyl-4-(pyrrolidin-1-yl)cyclohexyl)-2-(2-(2,4,6-trichloro-N-methylphenylsulfonamido)ethoxy)acetamide] | 90 | 55
9 | O=C(COCC1CCCN(S(=O)(=O)c2c(Cl)cc(Cl)cc2Cl)C1)NC1CCC(c2ccccc2)(N2CCCC2)CC1 (stereo not shown) [Compound 192, N-(4-phenyl-4-(pyrrolidin-1-yl)cyclohexyl)-2-((1-(2,4,6-trichlorophenylsulfonyl)piperidin-3-yl)methoxy)acetamide] | 99 | 50
10 | CN(CCOCC(=O)NC1CCC(Cc2ccccc2)(N2CCCC2)CC1)S(=O)(=O)c1ccc(Cl)cc1Cl (stereo not shown) [Compound 193, N-(4-benzyl-4-(pyrrolidin-1-yl)cyclohexyl)-2-(2-(2,4-dichloro-N-methylphenylsulfonamido)ethoxy)acetamide] | 93 | 34
11 | O=C(COC1CCCN(S(=O)(=O)c2c(Cl)cc(Cl)cc2Cl)C1)NC1CCC(c2ccccc2)(N2CCCC2)CC1 (stereo not shown) [Compound 194, N-(4-phenyl-4-(pyrrolidin-1-yl)cyclohexyl)-2-(1-(2,4,6-trichlorophenylsulfonyl)piperidin-3-yloxy)acetamide] | 96 | 33
12 | CN1CCN(C2(CCc3ccccc3)CCC(CN(C)C(=O)COCCN(C)S(=O)(=O)c3c(Cl)cc(Cl)cc3Cl)CC2)CC1 (stereo not shown) [Compound 195, N-methyl-N-((4-(4-methylpiperazin-1-yl)-4-phenethylcyclohexyl)methyl)-2-(2-(2,4,6-trichloro-N-methylphenylsulfonamido)ethoxy)acetamide] | 100 | 28
13 | COc1cc(C)c(S(=O)(=O)N(C)CCOCC(=O)N2CCC(N)(c3ccccc3)CC2)c(C)c1 [Compound 196, N-(2-(2-(4-Amino-4-phenylpiperidin-1-yl)-2-oxoethoxy)ethyl)-4-methoxy-N,2,6-trimethylbenzenesulfonamide] | 103 | 100
14 | COc1cc(C)c(S(=O)(=O)N(C)CCOCC(=O)N2CCC(Cc3ccccc3)(N3CCN(C)CC3)C2)c(C)c1 (stereo not shown) [Compound 197, N-(2-(2-(3-benzyl-3-(4-methylpiperazin-1-yl)pyrrolidin-1-yl)-2-oxoethoxy)ethyl)-4-methoxy-N,2,6-trimethylbenzenesulfonamide] | 98 | 99
15 | CN(C)C1(c2ccccc2)CCC(NC(=O)COC2CCN(S(=O)(=O)c3c(Cl)cc(Cl)cc3Cl)C2)CC1 (stereo not shown) [Compound 198, N-(4-(dimethylamino)-4-phenylcyclohexyl)-2-(1-(2,4,6-trichlorophenylsulfonyl)pyrrolidin-3-yloxy)acetamide] | 63 | 47
16 | CN(C)C1(c2ccccc2)CCC(NC(=O)COCCN(C)S(=O)(=O)c2c(Cl)cc(Cl)cc2Cl)CC1 (stereo not shown) [Compound 199, N-(4-(dimethylamino)-4-phenylcyclohexyl)-2-(2-(2,4,6-trichloro-N-methylphenylsulfonamido)ethoxy)acetamide] | 76 | 36
17 | COc1cc(C)c(S(=O)(=O)N2CCCC[C@H]2COCC(=O)N(C)CCC2CCC(c3ccccc3)(N3CCCC3)CC2)c(C)c1 (stereo partly drawn) [Compound 200, (S)-2-((1-(4-methoxy-2,6-dimethylphenylsulfonyl)piperidin-2-yl)methoxy)-N-methyl-N-(2-(4-phenyl-4-(pyrrolidin-1-yl)cyclohexyl)ethyl)acetamide] | 99 | 105
18 | COc1cc(C)c(S(=O)(=O)N2CCCC[C@H]2COCC(=O)N(C)CCC2CCC(c3ccccc3)(N3CCC3)CC2)c(C)c1 (stereo partly drawn) [Compound 201, (S)-N-(2-(4-(azetidin-1-yl)-4-phenylcyclohexyl)ethyl)-2-((1-(4-methoxy-2,6-dimethylphenylsulfonyl)piperidin-2-yl)methoxy)-N-methylacetamide] | 100 | 97
19 | COc1cc(C)c(S(=O)(=O)N2CCCCC2COCC(=O)N2CCC(c3ccccc3)(N(C)C)CC2)c(C)c1 (stereo not shown) [Compound 202, 1-(4-(dimethylamino)-4-phenylpiperidin-1-yl)-2-((1-(4-methoxy-2,6-dimethylphenylsulfonyl)piperidin-2-yl)methoxy)ethanone] | 100 | 103
20 | COc1cc(C)c(S(=O)(=O)N2CCCCC2COCC(=O)N(C)CCCC2CCC(c3ccccc3)(N(C)C)CC2)c(C)c1 (stereo not shown) [Compound 203, N-(3-(4-(dimethylamino)-4-phenylcyclohexyl)propyl)-2-((1-(4-methoxy-2,6-dimethylphenylsulfonyl)piperidin-2-yl)methoxy)-N-methylacetamide] | 99 | 98
21 | COc1cc(C)c(S(=O)(=O)N2CCCCC2COCC(=O)N(C)CCCC2CCC(c3cccc(F)c3)(N3CCCC3)CC2)c(C)c1 (stereo not shown) [Compound 204, N-(3-(4-(3-fluorophenyl)-4-(pyrrolidin-1-yl)cyclohexyl)propyl)-2-((1-(4-methoxy-2,6-dimethylphenylsulfonyl)piperidin-2-yl)methoxy)-N-methylacetamide] | 99 | 103
22 | COc1cc(C)c(S(=O)(=O)N2CCCCC2COCC(=O)N(C)CCCC2CCC(c3ccccc3)(N3CCC3)CC2)c(C)c1 (stereo not shown) [Compound 205, N-(3-(4-(azetidin-1-yl)-4-phenylcyclohexyl)propyl)-2-((1-(4-methoxy-2,6-dimethylphenylsulfonyl)piperidin-2-yl)methoxy)-N-methylacetamide] | 100 | 100
23 | COc1cc(C)c(S(=O)(=O)N(C)CCOCC(=O)N2CCC(c3ccncc3)(N(C)C)CC2)c(C)c1 [Compound 206, N-(2-(2-(4-(dimethylamino)-4-(pyridin-4-yl)piperidin-1-yl)-2-oxoethoxy)ethyl)-4-methoxy-N,2,6-trimethylbenzenesulfonamide] | 100 | 99
